Key:
Format in all cases: cell-based, human
imDAPs [1] = test: Flow cytometry analysis of FOXA2 expression in expanded imDAPs; details: for FOXA2 expression, FACS (FIG. 4C): VTN or DLL4+VTN coating, with or without 5 μM SB431542, 6 days
Procedure: 1. Individualize and collect cells by either Accutase or TrypLE treatment.
2. Wash cells with 1 ml PBS and pellet cells at 250×g for 15 sec.
3. Remove supernatant, add ˜200 μl of 4% PFA, mix and fix for 10 min at RT.
4. Pellet cells at 350×g for 5 min.
5. Wash cells by 1 ml of FACS buffer and pellet cells at 350×g for 5 min.
6. Remove supernatant, add 200 μl/tube of FACS buffer/0.1% TritonX, mix for 10 min at RT.
7. Wash cells by 1 ml of FACS buffer and pellet cells at 350×g for 5 min.
8. Remove supernatant, add 200 μl/tube of primary antibody diluted in FACS buffer, mix gently, and incubate for 30 min at RT.
9. Wash cells by 1 ml of FACS buffer and pellet cells at 350×g for 5 min.
10. Remove supernatant, and add 200 μl of secondary antibody diluted in FACS buffer, mix gently, and incubate for 30 min at RT.
11. Wash cells by 1 ml of FACS buffer and pellet cells at 300×g for 5 min.
12. Remove supernatant, add 200 μl of FACS buffer, and run samples on the flow cytometry.
imDAPs were produced according to the method described in CN201910169525.0. The imDAPs (P0) were seeded on VTN-coated plates (1 μg/cm^2) at a low density of 1×10^4 cells/cm^2, and cultured in the expansion medium (50% DMEM/F12, 50% Neurobasal™ medium, 1% (v/v) Glutamax, 2% (v/v) B27 (50×), 0.2 μM LDN193189, 3 μM CHIR99021, 100 ng/mL FGF8b) with either 5 μM Blebbistatin or 10 μM Y27632. Medium was replaced every 3rd day. At Day 6, cells were collected for FACS analysis.
(§1) imDAPs were produced according to the method described in CN201910169525.0. The imDAPs (P0) were seeded on DLL4-coated (1 μg/cm^2), VTN-coated (1 μg/cm^2) and DLL4/VTN-coated (1 μg/cm^2 for each) plates at a low density of 1×10^4 cells/cm^2 respectively, and cultured in the expansion medium in the absence or presence of 5 μM SB431542. Medium was replaced every 3rd day until reaching 100% confluence (6 days) for cell collection. The typical cell morphology on day 4 was recorded (FIG. 4A). The cell number of each group was counted by Vi-cell cytometer (FIG. 4B). The cells of each group were stained with Foxa2-PE antibody (BD, #561589), the percentage of Foxa2+ imDAPs were analyzed by flow cytometry (FIG. 4C). The expansion medium used in this example contained the following components: 50% DMEM/F12, 50% Neurobasal™ medium, 1% (v/v) Glutamax, 1% (v/v) B27, 50 μg/ml ascorbic acid, 0.2 μM LDN193189, 100 ng/ml FGF8b, 3 μM CHIR99021 and 10 µM Y27632.
imDAPs were produced according to the method described in CN201910169525.0. The imDAPs (P0) were seeded on DLL4/VTN-coated (1 μg/cm^2 for each) plates at a low density of 1×10^4 cells/cm^2, and cultured in the expansion medium (EM1, EM2, EM3, EM4). Medium was replaced every 3rd day until reaching 100% confluence (6 days) for cell collection. EM1 used in Example 9 contained the following components: 50% DMEM/F12, 50% Neurobasal™ medium, 1% (v/v) Glutamax, 1% (v/v) B27 (50×), 50 μg/ml ascorbic acid, 3 μM CHIR99021, 5 μM SB431542 and 10 μM Y27632. EM2 used in Example 9 contained the following components: 50% DMEM/F12, 50% Neurobasal™ medium, 1% (v/v) Glutamax, 1% (v/v) B27 (50×), 50 μg/ml ascorbic acid, 0.2 μM LDN193189, 3 μM CHIR99021, 5 μM SB431542 and 10 μM Y27632. EM3 used in Example 9 contained the following components: 50% DMEM/F12, 50% Neurobasal™ medium, 1% (v/v) Glutamax, 1% (v/v) B27 (50×), 50 μg/mL ascorbic acid, 0.2 μM LDN193189, 100 ng/ml FGF8b, 3 μM CHIR99021, 5 μM SB431542 and 10 μM Y27632. […]

imDAPs [2] = test: imDAP expansion, cell morphology (bright-field); details: for attachment and morphology of imDAPs on coated surface (FIG. 4A): coating 1 μg/cm^2 each, day 4, Example 8 expansion medium
Procedure: imDAPs were produced according to the method described in CN201910169525.0. The imDAPs (P0) were seeded on VTN-coated plates (1 μg/cm^2) at a density of 1×10^5 cells/cm^2 in the expansion medium (50% DMEM/F12, 50% Neurobasal™ medium, 1% (v/v) Glutamax, 2% (v/v) B27 (50×), 0.2 μM LDN193189, 3 μM CHIR99021, 100 ng/mL FGF8b) in the absence or presence of 5 μM Blebbistatin. In case where Blebbistatin is present, Blebbistatin was either removed 24 hrs after plating or present throughout the culture period. The medium was changed every day for 5 days.
imDAPs were produced according to the method described in CN201910169525.0. The imDAPs (P0) were seeded on VTN-coated plates (1 μg/cm^2) at a density of 1×10^5 cells/cm^2 in the expansion medium (50% DMEM/F12, 50% Neurobasal™ medium, 1% (v/v) Glutamax, 2% (v/v) B27 (50×), 3 μM CHIR99021, 100 ng/mL FGF8b, 5 μM Blebbistatin) in the absence or presence of 0.2 μM LDN193189. The medium was changed every day for 5 days.
as §1
imDAPs were produced according to the method described in CN201910169525.0. The imDAPs (P0) were seeded on DLL4/VTN-coated (1 μg/cm^2 for each) plates at a low density of 1×10^4 cells/cm^2, and cultured in the expansion medium (EM1, EM2, EM3, EM4). Medium was replaced every 3rd day until reaching 100% confluence (6 days) for cell collection. EM1 used in Example 9 contained the following components: 50% DMEM/F12, 50% Neurobasal™ medium, 1% (v/v) Glutamax, 1% (v/v) B27 (50×), 50 μg/ml ascorbic acid, 3 μM CHIR99021, 5 μM SB431542 and 10 μM Y27632. EM2 used in Example 9 contained the following components: 50% DMEM/F12, 50% Neurobasal™ medium, 1% (v/v) Glutamax, 1% (v/v) B27 (50×), 50 μg/ml ascorbic acid, 0.2 μM LDN193189, 3 μM CHIR99021, 5 μM SB431542 and 10 μM Y27632. EM3 used in Example 9 contained the following components: 50% DMEM/F12, 50% Neurobasal™ medium, 1% (v/v) Glutamax, 1% (v/v) B27 (50×), 50 μg/mL ascorbic acid, 0.2 μM LDN193189, 100 ng/ml FGF8b, 3 μM CHIR99021, 5 μM SB431542 and 10 μM Y27632. EM4 used in Example 9 contained the following components: 50% DMEM/F12, 50% Neurobasal™ medium, 1% (v/v) Glutamax, 1% (v/v) B27 (50×), 50 μg/ml ascorbic acid, 0.2 μM LDN193189, 10 ng/ml FGF2, 3 μM CHIR99021, 5 μM SB431542 and 10 μM Y27632.

imDAPs [3] = test: imDAP expansion efficiency (cell number, expansion fold, Population Doubling Time); details: DLL4/VTN-coated; for imDAP expansion, overall conclusion of Example 9: added to CHIR99021/SB431542/Y27632 medium
Procedure: imDAPs were produced according to the method described in CN201910169525.0. The imDAPs (P0) were seeded on VTN-coated plates (1 μg/cm^2) at a density of 1×10^5cells/cm^2 in the expansion medium (50% DMEM/F12, 50% Neurobasal™ medium, 1% (v/v) Glutamax, 2% (v/v) B27 (50×), 0.2 μM LDN193189, 3 μM CHIR99021, 100 ng/mL FGF8b, 5 μM Blebbistatin). The medium was changed every day. When imDAPs reach 100% confluence (4-5 days), cells were passaged enzymatically with 1× TrypLE, centrifuged at 250 g for 5 minutes, counted and replaced on new VTN-coated plates (1 μg/cm^2) at a density of 1×10^5 cells/cm^2 in the expansion medium. imDAPs were continuously expanded for 6 passages. At each passage, imDAPs were harvested at an expansion fold 5˜10 (over the initial number of imDAPs plated).
as §1, with “The expansion medium used in this example contained the following components: 50% DMEM/F12, 50% Neurobasal™ medium, 1% (v/v) Glutamax, 1% (v/v) B27, 50 μg/ml ascorbic acid, 0.2 μM LDN193189, 100 ng/ml FGF8b, 3 μM CHIR99021 and 10 µM Y27632.” left out
imDAPs were produced according to the method described in CN201910169525.0. […] Medium was replaced every 3rd day until reaching 100% confluence (6 days) for cell passaging. imDAPs were passaged enzymatically with 1× TrypLE, centrifuged at 250 g for 5 minutes, counted and plated on new DLL4/VTN-coated plates at a density of 1×10^4 cells/cm^2 in the expansion medium. imDAPs were expanded and maintained in the expansion medium for 6 passages. […]

DLL4: Notch agonist Delta-Like 4, used as coating matrix
FOXA2 expression, FACS (FIG. 4C) (imDAPs [1]): could improve FOXA2 expression
attachment and morphology of imDAPs on coated surface (FIG. 4A) (imDAPs [2]): could not support the attachment of imDAPs

FGF2: fibroblast growth factor
imDAP expansion, overall conclusion of Example 9 (imDAPs [3]): had no additional effects on imDAP expansion
cell morphology on day 5 (FIG. 5A) (imDAPs [2]; 10 ng/ml FGF2 (with 0.2 μM LDN193189) in expansion medium EM4, DLL4/VTN-coated): some obvious heterogeneous cells were observed

NC(=O)c1ccc(-c2nc(-c3ccc4c(c3)OCO4)c(-c3ccccn3)[nH]2)cc1 [SB431542]
FOXA2 expression, FACS (FIG. 4C) (imDAPs [1]): could improve FOXA2 expression

Cc1ccc2c(c1)C(=O)C1(O)CCN(c3ccccc3)C1=N2 (centres unmarked) [Blebbistatin]
imDAP expansion (cell morphology, FIG. 1A) (imDAPs [2]; 5 μM Blebbistatin throughout culture vs absent or removed 24 hrs after plating, VTN-coated plates, 5 days, P0 imDAPs): supported better imDAP expansion

c1ccc2c(-c3cnn4cc(-c5ccc(N6CCNCC6)cc5)cnc34)ccnc2c1 [LDN193189]
expression of FOXA2 for imDAPs, flow cytometry (FIG. 5C) (imDAPs [1]; addition of 100 ng/ml FGF8b and/or 0.2 μM LDN193189, DLL4/VTN-coated, P1 cells): slightly decreased the expression of FOXA2
imDAP expansion, overall conclusion of Example 9 (imDAPs [3]): had no additional effects on imDAP expansion
cell number during expansion (FIG. 5B) (imDAPs [3]; adding 0.2 μM LDN193189 and/or 100 ng/ml FGF8b to CHIR99021/SB431542/Y27632 medium, 6 days): had no additional effect on increasing the cell number
cell morphology of expanded imDAPs (FIG. 1B) (imDAPs [2]; absence vs presence of 0.2 μM LDN193189, VTN-coated, 5 days): imDAPs cultured without LDN193189 showed more flattened morphology

B1: VTN: vitronectin, first coating matrix that supports cell adhesion (protein, UniProt P04004 20-478, looked up)
Vitronectin: DQESCKGRCTEGFNVDKKCQCDELCSYYQSCCTDYTAECKPQVTRGDVFTMPEDEYTVYDDGEEKNNATVHEQVGGPSLTSDLQAQSKGNPEQTPVLKPEEEAPAPEVGASKPEGIDSRPETLHPGRPQPPAEEELCSGKPFDAFTDLKNGSLFAFRGQYCYELDEKAVRPGYPKLIRDVWGIEGPIDAAFTRINCQGKTYLFKGSQYWRFEDGVLDPDYPRNISDGFDGIPDNVDAALALPAHSYSGRERVYFFKGKQYWEYQFQHQPSQEECEGSSLSAVFEHFAMMQRDSWEDIFELLFWGRTSAGTRQPQFISRDWHGVPGQVDAAMAGRIYISGMAPRPSLAKKQRFRHRNRKGYRSQRGHSRGRNQNSRRPSRATWLSLFSSEESNLGANNYDDYRMDWLVPATCEPIQSVFFFSGDKYYRVNLRTRRVDTVDPPYPRSIAQYWLGCPAPGHL
attachment and morphology of imDAPs on coated surface (FIG. 4A) (imDAPs [2]): flattened morphology

From patent US20240327787A1, “CULTURE MEDIUM, COATING MATRIX AND METHOD FOR EXPANDING MIDBRAIN DOPAMINERGIC PROGENITOR CELLS” (NUWACELL BIOTECHNOLOGIES CO., LTD., priority 2022, published 2024)
